Assay in all cases: Kinase selectivity, DiscoverX scanMAX Kinase assay panel (% control)
Common to all, as to assay type: binding

Test [1] concerns the target T1, kinases of the scanMAX Kinase assay panel (Homo sapiens, UniProt Q9UBF8).
T1 construct: purchased DiscoverX Co. (contract measurement) scanMAX Kinase assay panel
To be noted: PIK4CB; 1 uM. The method, boiled down:
(§1)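 A 1 uM DMSO solution of compound was applied across the panel kinases, and results were expressed as % control relative to DMSO (100%) and a positive control (0%).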

Test [2] addresses T2, kinases of the scanMAX Kinase assay panel (Homo sapiens, UniProt Q96NX5).
T2 construct: purchased DiscoverX Co. (contract measurement) scanMAX Kinase assay panel
To be noted: CAMK1G; 1 uM. The method in brief:
as §1

The target in test [3] is T3, kinases of the scanMAX Kinase assay panel (Homo sapiens, UniProt Q92630).
T3 construct: purchased DiscoverX Co. (contract measurement) scanMAX Kinase assay panel
T3 sequence (Q92630 1-601): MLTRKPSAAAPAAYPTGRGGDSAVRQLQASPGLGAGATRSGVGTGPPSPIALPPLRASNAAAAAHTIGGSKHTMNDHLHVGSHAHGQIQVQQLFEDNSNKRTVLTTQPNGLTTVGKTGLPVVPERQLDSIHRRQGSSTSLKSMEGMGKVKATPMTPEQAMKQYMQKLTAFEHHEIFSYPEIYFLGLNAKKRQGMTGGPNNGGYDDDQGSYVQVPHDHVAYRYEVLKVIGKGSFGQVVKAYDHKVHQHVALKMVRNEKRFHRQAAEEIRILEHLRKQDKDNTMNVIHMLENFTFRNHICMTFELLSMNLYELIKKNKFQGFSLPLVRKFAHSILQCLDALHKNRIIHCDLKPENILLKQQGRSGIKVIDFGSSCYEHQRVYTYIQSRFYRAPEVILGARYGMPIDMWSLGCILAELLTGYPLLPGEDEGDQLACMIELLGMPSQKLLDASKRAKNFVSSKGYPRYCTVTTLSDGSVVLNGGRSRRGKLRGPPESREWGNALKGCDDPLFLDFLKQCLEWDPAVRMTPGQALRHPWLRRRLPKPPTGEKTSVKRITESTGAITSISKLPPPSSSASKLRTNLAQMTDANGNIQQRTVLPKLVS
To be noted: DYRK2; 1 uM. The method, boiled down:
as §1

The target of test [4] is T4, kinases of the scanMAX Kinase assay panel (Homo sapiens, UniProt Q96Q40).
T4 construct: purchased DiscoverX Co. (contract measurement) scanMAX Kinase assay panel
To be noted: PFTAIRE2; 1 uM. The method, boiled down: as §1

In test [5] the target is T5, kinases of the scanMAX Kinase assay panel (Homo sapiens, UniProt P36896).
T5 construct: purchased DiscoverX Co. (contract measurement) scanMAX Kinase assay panel
T5 sequence (P36896 24-505): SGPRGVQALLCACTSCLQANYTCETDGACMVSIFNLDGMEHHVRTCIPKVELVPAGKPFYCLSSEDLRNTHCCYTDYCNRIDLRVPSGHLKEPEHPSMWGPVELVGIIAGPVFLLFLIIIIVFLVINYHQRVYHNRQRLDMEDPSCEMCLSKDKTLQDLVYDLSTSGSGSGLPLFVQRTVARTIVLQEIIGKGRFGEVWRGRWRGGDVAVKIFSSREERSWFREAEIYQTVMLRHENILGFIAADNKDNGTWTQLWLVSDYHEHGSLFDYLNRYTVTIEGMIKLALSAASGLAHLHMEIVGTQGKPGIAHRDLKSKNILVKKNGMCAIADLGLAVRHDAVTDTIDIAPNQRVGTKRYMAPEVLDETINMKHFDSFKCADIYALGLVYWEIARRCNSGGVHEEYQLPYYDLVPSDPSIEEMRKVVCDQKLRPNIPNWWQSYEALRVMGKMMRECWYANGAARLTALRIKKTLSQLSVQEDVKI
The settings on record: ACVR1B; 1 uM. The method, boiled down:
as §1

The target in test [6] is T6, kinases of the scanMAX Kinase assay panel (Homo sapiens, UniProt P29376).
T6 construct: purchased DiscoverX Co. (contract measurement) scanMAX Kinase assay panel
The settings on record: LTK; 1 uM. The method in brief: as §1

Test [7] has as its target T7, kinases of the scanMAX Kinase assay panel (Homo sapiens, UniProt O75716).
T7 construct: purchased DiscoverX Co. (contract measurement) scanMAX Kinase assay panel
The settings on record: kinase STK16; 1 uM in DMSO. The method in brief:
as §1

Test [8] addresses T8, kinases of the scanMAX Kinase assay panel (Homo sapiens, UniProt Q13882).
T8 construct: purchased DiscoverX Co. (contract measurement) scanMAX Kinase assay panel
To be noted: BRK; 1 uM. The method, boiled down: as §1

The target in test [9] is T9, kinases of the scanMAX Kinase assay panel (Homo sapiens, UniProt P16234).
T9 construct: purchased DiscoverX Co. (contract measurement) scanMAX Kinase assay panel
The settings on record: PDGFRA; 1 uM. The method, boiled down: as §1

Test [10] concerns the target T10, kinases of the scanMAX Kinase assay panel (Homo sapiens, UniProt Q8WTQ7).
T10 construct: purchased DiscoverX Co. (contract measurement) scanMAX Kinase assay panel
T10 sequence (Q8WTQ7 1-553): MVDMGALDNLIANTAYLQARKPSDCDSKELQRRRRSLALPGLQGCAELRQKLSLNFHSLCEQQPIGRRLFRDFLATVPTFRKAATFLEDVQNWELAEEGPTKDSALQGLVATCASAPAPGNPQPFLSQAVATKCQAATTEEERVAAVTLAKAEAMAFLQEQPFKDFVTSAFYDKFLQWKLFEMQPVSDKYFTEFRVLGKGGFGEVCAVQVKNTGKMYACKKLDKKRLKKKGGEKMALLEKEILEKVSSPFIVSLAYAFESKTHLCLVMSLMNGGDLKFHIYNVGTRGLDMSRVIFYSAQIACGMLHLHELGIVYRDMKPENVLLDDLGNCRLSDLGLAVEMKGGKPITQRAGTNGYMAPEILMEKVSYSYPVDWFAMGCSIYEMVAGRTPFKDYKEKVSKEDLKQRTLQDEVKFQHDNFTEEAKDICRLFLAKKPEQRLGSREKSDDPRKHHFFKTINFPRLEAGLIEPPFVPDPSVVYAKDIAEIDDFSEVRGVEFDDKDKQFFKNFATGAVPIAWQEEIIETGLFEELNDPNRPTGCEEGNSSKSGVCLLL
The settings on record: GRK7; 1 uM. The method, boiled down:
as §1

T4 sequence (Q96Q40 whole entry): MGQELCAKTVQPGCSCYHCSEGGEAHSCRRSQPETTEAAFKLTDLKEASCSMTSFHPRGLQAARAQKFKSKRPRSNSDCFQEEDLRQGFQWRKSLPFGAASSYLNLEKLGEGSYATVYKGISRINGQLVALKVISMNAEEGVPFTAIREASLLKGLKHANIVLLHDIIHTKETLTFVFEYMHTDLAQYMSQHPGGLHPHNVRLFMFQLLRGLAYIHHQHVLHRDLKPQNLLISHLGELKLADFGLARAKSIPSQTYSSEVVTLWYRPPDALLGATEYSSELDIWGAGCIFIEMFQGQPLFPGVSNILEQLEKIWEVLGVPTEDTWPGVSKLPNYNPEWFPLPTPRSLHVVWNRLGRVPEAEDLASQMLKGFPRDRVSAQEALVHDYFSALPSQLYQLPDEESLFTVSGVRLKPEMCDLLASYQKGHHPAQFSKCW
T9 sequence (P16234 24-1089): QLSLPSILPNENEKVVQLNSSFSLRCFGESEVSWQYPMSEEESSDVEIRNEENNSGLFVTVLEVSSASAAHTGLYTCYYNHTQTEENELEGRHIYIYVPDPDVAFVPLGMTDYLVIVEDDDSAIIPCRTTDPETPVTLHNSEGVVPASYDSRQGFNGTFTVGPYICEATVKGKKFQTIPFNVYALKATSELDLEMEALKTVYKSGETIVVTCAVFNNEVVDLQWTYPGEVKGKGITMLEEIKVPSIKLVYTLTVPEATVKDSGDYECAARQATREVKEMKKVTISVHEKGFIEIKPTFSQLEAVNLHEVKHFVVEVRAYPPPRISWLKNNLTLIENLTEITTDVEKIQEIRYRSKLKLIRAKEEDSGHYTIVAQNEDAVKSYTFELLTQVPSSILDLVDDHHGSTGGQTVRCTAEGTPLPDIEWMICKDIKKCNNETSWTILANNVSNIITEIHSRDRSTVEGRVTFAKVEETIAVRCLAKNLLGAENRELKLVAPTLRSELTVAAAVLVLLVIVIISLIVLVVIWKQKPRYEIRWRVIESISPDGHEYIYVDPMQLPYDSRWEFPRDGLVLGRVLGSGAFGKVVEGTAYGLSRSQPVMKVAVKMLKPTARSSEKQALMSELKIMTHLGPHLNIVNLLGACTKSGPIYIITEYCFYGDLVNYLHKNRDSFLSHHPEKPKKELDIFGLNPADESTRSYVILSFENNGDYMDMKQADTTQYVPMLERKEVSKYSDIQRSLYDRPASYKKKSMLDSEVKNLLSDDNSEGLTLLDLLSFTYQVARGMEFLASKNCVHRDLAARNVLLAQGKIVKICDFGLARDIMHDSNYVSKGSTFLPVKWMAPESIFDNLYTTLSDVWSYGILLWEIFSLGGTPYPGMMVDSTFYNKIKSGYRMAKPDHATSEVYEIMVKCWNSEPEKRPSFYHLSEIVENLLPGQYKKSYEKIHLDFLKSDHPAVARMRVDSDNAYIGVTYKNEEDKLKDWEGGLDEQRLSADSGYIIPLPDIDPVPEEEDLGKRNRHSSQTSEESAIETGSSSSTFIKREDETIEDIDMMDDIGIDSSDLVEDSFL
T1 sequence (Q9UBF8 whole entry): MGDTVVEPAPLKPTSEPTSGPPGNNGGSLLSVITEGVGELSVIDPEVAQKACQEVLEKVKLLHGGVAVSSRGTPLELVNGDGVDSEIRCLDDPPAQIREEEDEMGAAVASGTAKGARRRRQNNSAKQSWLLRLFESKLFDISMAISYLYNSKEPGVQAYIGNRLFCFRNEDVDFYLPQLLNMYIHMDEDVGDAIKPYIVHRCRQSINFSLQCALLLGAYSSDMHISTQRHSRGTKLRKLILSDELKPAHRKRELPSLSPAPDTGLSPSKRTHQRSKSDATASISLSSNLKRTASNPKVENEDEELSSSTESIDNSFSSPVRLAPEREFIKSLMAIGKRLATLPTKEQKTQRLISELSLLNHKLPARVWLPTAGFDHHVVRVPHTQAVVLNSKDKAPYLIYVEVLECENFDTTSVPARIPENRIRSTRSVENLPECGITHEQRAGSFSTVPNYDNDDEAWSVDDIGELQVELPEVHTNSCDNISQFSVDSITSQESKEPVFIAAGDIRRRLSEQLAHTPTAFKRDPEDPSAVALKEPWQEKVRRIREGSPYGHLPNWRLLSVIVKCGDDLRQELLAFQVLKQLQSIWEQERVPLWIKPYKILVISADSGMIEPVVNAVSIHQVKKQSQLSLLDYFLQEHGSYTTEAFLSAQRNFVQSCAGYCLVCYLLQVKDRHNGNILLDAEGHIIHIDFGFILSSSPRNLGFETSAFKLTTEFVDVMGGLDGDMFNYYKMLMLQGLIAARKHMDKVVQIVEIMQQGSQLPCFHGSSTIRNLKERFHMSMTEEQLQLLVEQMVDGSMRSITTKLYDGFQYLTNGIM
T7 sequence (O75716 whole entry): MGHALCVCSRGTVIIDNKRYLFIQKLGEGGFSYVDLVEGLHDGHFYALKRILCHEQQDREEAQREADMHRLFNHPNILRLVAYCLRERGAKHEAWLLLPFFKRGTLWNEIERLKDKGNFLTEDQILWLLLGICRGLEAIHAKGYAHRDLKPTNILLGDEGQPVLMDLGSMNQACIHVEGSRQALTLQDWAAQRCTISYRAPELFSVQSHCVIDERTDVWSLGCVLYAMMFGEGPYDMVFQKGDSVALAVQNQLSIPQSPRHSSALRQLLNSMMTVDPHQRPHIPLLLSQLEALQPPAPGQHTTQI
T6 sequence (P29376 17-864): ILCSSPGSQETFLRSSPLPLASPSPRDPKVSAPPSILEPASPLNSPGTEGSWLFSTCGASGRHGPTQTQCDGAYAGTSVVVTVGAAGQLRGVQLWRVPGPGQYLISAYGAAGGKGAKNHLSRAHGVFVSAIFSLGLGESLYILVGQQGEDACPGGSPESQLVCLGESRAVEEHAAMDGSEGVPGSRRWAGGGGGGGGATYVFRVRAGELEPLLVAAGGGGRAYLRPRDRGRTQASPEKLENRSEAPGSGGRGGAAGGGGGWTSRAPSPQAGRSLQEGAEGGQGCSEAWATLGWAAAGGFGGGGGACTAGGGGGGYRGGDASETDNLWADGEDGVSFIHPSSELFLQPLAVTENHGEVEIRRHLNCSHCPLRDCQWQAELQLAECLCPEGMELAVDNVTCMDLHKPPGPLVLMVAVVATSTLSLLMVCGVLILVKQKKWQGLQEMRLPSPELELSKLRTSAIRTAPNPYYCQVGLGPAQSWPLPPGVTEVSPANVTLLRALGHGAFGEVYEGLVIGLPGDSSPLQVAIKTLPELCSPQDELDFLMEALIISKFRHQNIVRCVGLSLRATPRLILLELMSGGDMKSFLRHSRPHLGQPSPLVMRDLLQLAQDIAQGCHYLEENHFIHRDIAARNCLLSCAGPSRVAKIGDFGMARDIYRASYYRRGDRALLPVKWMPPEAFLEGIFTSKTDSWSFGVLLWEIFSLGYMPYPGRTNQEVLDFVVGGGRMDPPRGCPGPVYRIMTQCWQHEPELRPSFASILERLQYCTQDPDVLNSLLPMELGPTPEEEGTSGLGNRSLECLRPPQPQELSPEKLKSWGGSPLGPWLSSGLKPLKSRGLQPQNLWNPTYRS
T2 sequence (Q96NX5 whole entry): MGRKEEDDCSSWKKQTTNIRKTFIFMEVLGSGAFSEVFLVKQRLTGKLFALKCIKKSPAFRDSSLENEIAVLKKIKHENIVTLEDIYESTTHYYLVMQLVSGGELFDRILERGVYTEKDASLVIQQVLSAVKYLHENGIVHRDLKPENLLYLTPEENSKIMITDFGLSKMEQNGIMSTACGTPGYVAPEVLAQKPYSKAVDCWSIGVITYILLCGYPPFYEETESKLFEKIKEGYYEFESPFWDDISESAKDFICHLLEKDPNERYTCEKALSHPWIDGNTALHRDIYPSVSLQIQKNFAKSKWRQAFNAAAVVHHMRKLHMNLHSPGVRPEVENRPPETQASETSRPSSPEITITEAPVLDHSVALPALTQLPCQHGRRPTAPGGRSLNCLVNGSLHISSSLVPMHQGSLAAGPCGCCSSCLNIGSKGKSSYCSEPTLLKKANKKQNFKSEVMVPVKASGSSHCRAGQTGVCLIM
T8 sequence (Q13882 whole entry): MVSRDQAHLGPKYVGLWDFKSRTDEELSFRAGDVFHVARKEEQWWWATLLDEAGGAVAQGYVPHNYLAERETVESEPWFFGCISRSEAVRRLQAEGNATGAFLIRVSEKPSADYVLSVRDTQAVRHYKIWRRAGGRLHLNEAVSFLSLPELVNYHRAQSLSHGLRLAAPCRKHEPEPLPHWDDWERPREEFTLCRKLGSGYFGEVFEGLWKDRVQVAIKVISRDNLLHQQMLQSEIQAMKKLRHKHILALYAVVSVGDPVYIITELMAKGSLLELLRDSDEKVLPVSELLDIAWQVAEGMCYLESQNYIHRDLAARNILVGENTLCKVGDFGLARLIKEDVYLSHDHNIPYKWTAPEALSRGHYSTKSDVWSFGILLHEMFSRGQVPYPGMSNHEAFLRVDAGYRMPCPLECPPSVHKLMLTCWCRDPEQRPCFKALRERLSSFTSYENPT

For the compound `CNc1nc(Nc2ccc(C(=O)N3CCOCC3)cc2OC)nc2[nH]cc(C#N)c12` [Example 1, 2-((2-methoxy-4-(morpholine-4-carbonyl)phenyl)amino)-4-(methylamino)-7H-pyrrolo[2,3-d]pyrimidine-5-carbonitrile], the remaining binding at 1 µM was 61% in test [1]; 74% in [2]; 22% in test [3]; 97% in [4]; 86% in test [5]; 6.8% in [6]. The remaining binding at 1 µM is 74% in test [7], 93% in test [8], 15% in [9] and 71% in [10].
As to `CC1(Nc2nc(Nc3cnn([C@H]4CCN(C5COC5)C[C@@H]4F)c3Cl)nc3[nH]cc(C#N)c23)CC1` [Example 52, 2-((5-chloro-1-((3S,4S)-3-fluoro-1-(oxetane-3-yl)piperidine-4-yl)-1H-pyrazole-4-yl)amino)((1-methylcyclopropyl)amino)-7H-pyrrolo[2,3-d]pyrimidine-5-carbonitrile], the remaining binding at 1 µM in test [1] was 60%; in [2] it was 34%; in [3], 0.8%; in [4] it was 90%; in test [5] it was 92%; in test [6], 3.4%. In addition, the remaining binding at 1 µM was found to be 0.35% in test [7], 24% in test [8], 9.7% in test [9] and 65% in test [10].
As to `CCNc1nc(Nc2ccc(C(=O)N3CCC(N4CCOCC4)CC3)cc2OC)nc2[nH]cc(C(F)(F)F)c12` [Example 104, (4-((4-(ethylamino)-5-(trifluoromethyl)-7H-pyrrolo[2,3-d]pyrimidine-2-yl)amino)-3-methoxyphenyl)(4-morpholinopiperidine-1-yl)methanone], the remaining binding at 1 µM turned out to be 99% in test [1]; 94% in [2]; 25% in [3]; 99% in test [4]; 100% in test [5]; 3.7% in [6]. Further, the remaining binding at 1 µM in test [7] came out at 69%; in test [8] it was 64%; in test [9] it was 88%; in [10] it was 78%.

The values above are taken from patent US11208412B2 (DAEGU-GYEONGBUK MEDICAL INNOVATION FOUNDATION, priority 2017, dated 2021).
